According to US9944669B2, “Fumarate-CO-releasing molecule hybrids, their use in the treatment of inflammatory or cardiovascular diseases and their process of preparation” (UNIVERSITE PARIS EST CRETEIL VAL DE MARNE, priority 2014, dated 2018):
Where a name gives a salt, the structure may show the parent alone.

Legend:
[1] = test system: BV2 cells challenged with lipopolysaccharide (LPS); assay: Nitrite production in BV2 cells challenged with LPS (Griess method); format: cell-based
Procedure: […] At the end of the incubation, nitrite levels were measured using the Griess method.^12,14 Briefly, cell plates were centrifuged at 10,000×g for 5 min and the cell-free supernatant was incubated with an equal volume of Griess reagent (2 mM N-(1-naphtyl)ethylenediamide, 30 mM sulfanilamide and 140 mM o-phosphoric acid) for 10 min at room temperature. The absorbance was measured at 560 nm. Concentrations of nitrite (μM) were calculated from a standard curve of sodium nitrite.

HO-1 = HO-1 protein expression in THP-1 cells; format: cell-based, Human
Procedure: THP-1 cells were exposed to different concentration of compounds A, B, and C during 6 hours.

TNF-α = TNF-α production in THP-1 cells challenged with LPS; format: cell-based, Human; conditions: LPS (100 μg/ml), 5 μM compound, 24 h
Procedure: Human THP-1 cells cultured as in Example 3.3 were treated with LPS (100 μg/ml) alone or in the presence of 5 μM compound C, compound E or the comparative dimethyl fumarate (DMF) for 24 h.

Row | Compound | Nitrite levels (μM) LPS + compound ([1]; 5 μM compound, 24 hr incubation with 0.5 μg/ml LPS, mean ± SEM) | % decrease vs. LPS (nitrite) ([1]; 5 μM compound, 24 hr, LPS) | concentration giving almost the same reduction of nitrite production (compound C vs compound J) ([1]; BV2, LPS 1 μg/ml 24 h) | concentration needed for the same HO-1 result, as fold of the compound C concentration (5 μM) (HO-1) | TNF-α production (TNF-α)
1 | C#CCOC(=O)/C=C/C(=O)OCC [Compound J] | 43.2 ± 1.0 µM | 50.1% | 5 µM | 10 fold | –
2 | COC(=O)/C=C/C(=O)OC [dimethyl fumarate (DMF)] | – | – | – | – | did not have any effect
